# Reference: ChEMBL document CHEMBL1201862, “PubChem BioAssay data set” (2004)
# Structures can show the parent of a compound that is named as a salt. Calls of active or inactive are those of the source.
# What was measured:
# [1] = Potency on glucagon-like peptide 1 release, dose-response in NCI-H716 cell line, half maximal inhibitory concentration (AID 1117344); type: functional, cell-based
# [2] = glucagon-like peptide-1 release potency in STC-1, concentration-response, half-maximal inhibitory concentration in the STC-1 line (AID 1117345); type: functional, cell-based
# [3] = target: Heat shock protein HSP 90-alpha (Homo sapiens, UniProt P07900); type: functional, organism-based
# [4] = system: Escherichia coli; experiment: microbe, parasite or virus in culture
# [5] = system: Escherichia coli; experiment: microbe, parasite or virus in culture; remark: listed apart in the source
# [6] = target: T1, Aryl hydrocarbon receptor (Homo sapiens, UniProt P35869); details: Potency;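 note: confirmatory quantitative high-throughput screen measuring activation of the AhR signaling pathway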
# T1 sequence (P35869 whole entry): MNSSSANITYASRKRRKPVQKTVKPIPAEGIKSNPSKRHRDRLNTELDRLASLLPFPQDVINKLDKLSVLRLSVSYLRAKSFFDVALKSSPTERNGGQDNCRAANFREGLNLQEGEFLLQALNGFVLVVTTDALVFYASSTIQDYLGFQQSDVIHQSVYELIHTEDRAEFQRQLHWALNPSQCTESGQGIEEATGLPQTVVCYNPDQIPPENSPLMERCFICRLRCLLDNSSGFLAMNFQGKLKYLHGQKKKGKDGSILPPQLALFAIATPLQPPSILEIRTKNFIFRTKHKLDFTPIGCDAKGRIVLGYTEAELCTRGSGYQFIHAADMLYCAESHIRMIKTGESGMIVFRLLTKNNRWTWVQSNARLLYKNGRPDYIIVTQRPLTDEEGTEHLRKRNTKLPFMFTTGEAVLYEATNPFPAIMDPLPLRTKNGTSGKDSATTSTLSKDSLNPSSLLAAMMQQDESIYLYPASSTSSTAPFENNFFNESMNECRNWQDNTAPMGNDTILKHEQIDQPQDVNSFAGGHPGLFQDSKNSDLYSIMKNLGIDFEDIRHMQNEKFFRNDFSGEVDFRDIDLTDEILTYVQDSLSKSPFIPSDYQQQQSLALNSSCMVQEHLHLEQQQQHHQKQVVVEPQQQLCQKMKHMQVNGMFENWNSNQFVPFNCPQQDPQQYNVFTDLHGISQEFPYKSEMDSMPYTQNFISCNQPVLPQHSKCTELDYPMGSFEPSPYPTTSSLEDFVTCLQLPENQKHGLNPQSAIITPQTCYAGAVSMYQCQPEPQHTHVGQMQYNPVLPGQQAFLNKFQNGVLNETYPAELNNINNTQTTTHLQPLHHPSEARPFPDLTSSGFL
# [7] = non-specific 3'UTR reporter inhibition in Clone20-Shn3RL – cell-based, Renilla luciferase, cherry-picked, counter-screen for Shn3 inhibitor project, dose response (AID 624133); type: functional
# [8] = system: INS1; experiment: INS-1E survival protection against cytokine death – cell-based, luminescence, retest, dose response (AID 449756); type: functional; details: Rattus norvegicus;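 note: cell death triggered by IL-1 beta plus TNF-alpha plus IFN-gamma mixture; protective hits raise ATP signal compared with cytokine alone wells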
# [9] = viability of PTEN-deleted HCT116 cells – cell-based, HCT116 PTEN knockout, dose response (AID 1047); type: functional;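 note: HCT116 colon tumor cells with PTEN knocked out; cells exposed to compound for 60 hours before readout; potency for loss of cell viability measured by luminescence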
# [10] = alpha-synuclein stem-loop luciferase translation blockers – H4 neuroglioma cells, luminescence, confirmation (AID 1988); type: functional, cell-based
# [11] = microbe, parasite or virus in culture; type: functional; details: Mycobacterium tuberculosis
# [12] = loss of viability in HepG2 cells – cell-based, CellTiter-Glo, cherry-picked, cytotoxicity control for Shn3 inhibitor project, dose response (AID 624134); type: functional
# [13] = Luminescence Cell-Based Dose Response HTS to Identify Inhibitors of 5'UTR Stem-Loop Driven Prion Protein mRNA Translation in H4 Neuroglioblastoma Cells. [Related pubchem assays: 1827 (Project Summary), 1813 (Primary HTS)]; type: functional
# [14] = target: T2, Ubiquitin-conjugating enzyme E2 N (Homo sapiens, UniProt P61088); type: functional;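 note: Dose-response confirmation in a TR-FRET assay detecting UBC13-driven polyubiquitin chain formation, inhibition measured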
# T2 sequence (P61088 whole entry): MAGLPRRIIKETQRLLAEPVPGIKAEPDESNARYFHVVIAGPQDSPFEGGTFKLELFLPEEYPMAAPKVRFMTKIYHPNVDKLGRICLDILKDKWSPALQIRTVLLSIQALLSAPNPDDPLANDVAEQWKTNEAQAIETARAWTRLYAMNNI
# [15] = luciferase reporter signal suppression in cells – H4 neuroglioma cells, luminescence, dose response (AID 1990); type: functional, cell-based
# [16] = viability of HCT116 lacking mutant beta-catenin – cell-based, human colon tumor, dose response (AID 1045); type: functional;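 note: HCT116 colon tumor cells with beta catenin knocked out; cells exposed to compound for 60 hours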
# [17] = reduction of Shn3 3'UTR-driven luciferase in osteoblasts – cell-based, Clone20 osteoblasts, firefly luciferase, cherry-picked, dose response (AID 624132); type: functional;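 note: firefly luciferase luminescence from reporter carrying the Shn3 3'UTR in osteoblasts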
# [18] = target: T3, Caspase-6 (Homo sapiens, UniProt P55212); experiment: inhibition of CASP6 peptide cleavage – biochemical, VEID-R110 fluorescence, cherry-pick, dose response (AID 720632)
# T3 sequence (P55212 whole entry): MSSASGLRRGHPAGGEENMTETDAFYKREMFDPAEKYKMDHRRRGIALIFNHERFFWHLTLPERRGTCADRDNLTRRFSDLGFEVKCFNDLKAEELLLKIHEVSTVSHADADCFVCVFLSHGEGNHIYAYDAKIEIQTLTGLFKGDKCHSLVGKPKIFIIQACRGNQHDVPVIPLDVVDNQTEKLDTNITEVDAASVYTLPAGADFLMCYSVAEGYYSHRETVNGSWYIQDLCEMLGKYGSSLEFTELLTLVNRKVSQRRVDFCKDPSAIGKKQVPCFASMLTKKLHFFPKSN
# [19] = target: T4, Histone-lysine N-methyltransferase NSD2 (Homo sapiens, UniProt O96028); type: biochemical
# T4 sequence (O96028 whole entry): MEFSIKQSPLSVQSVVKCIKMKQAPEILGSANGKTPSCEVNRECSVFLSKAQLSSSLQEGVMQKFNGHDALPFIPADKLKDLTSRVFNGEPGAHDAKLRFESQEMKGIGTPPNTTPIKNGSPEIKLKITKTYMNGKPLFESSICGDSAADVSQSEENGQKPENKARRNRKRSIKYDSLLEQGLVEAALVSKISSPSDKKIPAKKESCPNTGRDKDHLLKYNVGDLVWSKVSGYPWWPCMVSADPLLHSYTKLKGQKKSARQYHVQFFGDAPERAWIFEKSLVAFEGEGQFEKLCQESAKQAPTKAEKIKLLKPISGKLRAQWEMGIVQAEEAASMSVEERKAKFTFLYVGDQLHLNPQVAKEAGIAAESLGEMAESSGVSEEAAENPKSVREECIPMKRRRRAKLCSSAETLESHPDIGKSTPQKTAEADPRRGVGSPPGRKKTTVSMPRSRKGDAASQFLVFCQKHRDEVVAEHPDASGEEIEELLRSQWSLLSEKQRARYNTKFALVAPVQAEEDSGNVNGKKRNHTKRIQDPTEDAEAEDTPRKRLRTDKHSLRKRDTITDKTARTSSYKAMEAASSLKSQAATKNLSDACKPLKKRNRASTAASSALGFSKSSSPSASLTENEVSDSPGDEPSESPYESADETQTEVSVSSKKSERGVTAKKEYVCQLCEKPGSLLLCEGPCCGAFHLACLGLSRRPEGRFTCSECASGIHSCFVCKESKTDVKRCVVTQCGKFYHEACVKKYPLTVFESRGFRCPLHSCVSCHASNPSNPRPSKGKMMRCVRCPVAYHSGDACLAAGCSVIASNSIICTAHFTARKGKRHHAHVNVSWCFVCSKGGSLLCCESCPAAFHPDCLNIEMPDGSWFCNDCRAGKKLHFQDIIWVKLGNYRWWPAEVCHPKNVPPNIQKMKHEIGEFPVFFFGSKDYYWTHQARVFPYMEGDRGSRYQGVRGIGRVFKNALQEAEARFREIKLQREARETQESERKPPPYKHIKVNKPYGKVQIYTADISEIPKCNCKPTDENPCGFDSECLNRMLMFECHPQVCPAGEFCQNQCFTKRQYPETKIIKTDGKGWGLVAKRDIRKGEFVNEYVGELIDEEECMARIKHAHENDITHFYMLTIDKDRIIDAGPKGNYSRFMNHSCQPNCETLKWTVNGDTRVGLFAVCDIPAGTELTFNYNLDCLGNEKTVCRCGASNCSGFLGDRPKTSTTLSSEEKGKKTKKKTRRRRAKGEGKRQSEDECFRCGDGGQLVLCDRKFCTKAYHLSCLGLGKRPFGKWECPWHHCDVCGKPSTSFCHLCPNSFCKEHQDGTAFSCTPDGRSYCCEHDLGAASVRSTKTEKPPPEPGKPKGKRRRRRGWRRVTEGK
smiles,measurement,setting,value
C[C@@H](NCCCc1cccc(C(F)(F)F)c1)c1cccc2ccccc12 [CINACALCET HYDROCHLORIDE],IC50,[1],17.2 µM (inactive)
same,IC50,[2],> 40 µM (inactive)
Oc1cc(Cl)ccc1Oc1ccc(Cl)cc1Cl [TRICLOSAN],AC50,[3],7.85 µM (active)
same,AC50,[4],0.329 µM (active)
same,IC50,[1],21.3 µM (inactive)
same,AC50,[5],1.06 µM (active)
same,IC50,[2],2.55 µM (active)
same,AC50,[6],70.8 µM (inconclusive)
CC(C)(C)c1ccc(C(O)CCCN2CCC(C(O)(c3ccccc3)c3ccccc3)CC2)cc1 (stereo not drawn) [TERFENADINE],AC50,[7],12.9 µM (active)
same,AC50,[8],8.13 µM (active)
same,EC50,[9],4.43 µM (active)
same,EC50,[10],4.26 µM (active)
same,IC50,[1],20.5 µM (inactive)
same,CC50,[11],9.24 µM (active)
same,AC50,[12],11.4 µM (active)
same,EC50,[13],6.46 µM (active)
same,IC50,[2],> 40 µM (inactive)
same,IC50,[14],> 20 µM (inactive)
same,EC50,[15],> 120 µM (not active)
same,EC50,[16],4.55 µM (active)
same,AC50,[17],16.7 µM (active)
Cc1cc(/C=C\c2nc(O)c([N+](=O)[O-])c(O)n2)c(C)n1-c1ccccc1,AC50,[18],19.2 µM (active)
same,AC50,[19],> 20 µM (inactive)
